Results reported in BigSolDB 2.1.

Cn1c(=O)cc(N2CCC[C@@H](N)C2)n(Cc2ccccc2C#N)c1=O.O=C(O)c1ccccc1
solubility (mole fraction)
Settings | 278.15 K | 283.15 K | 288.15 K | 293.15 K | 298.15 K | 303.15 K | 308.15 K | 313.15 K | 318.15 K
in DMF | 0.00568 | 0.00686 | 0.00824 | 0.00984 | 0.0117 | 0.0138 | 0.0162 | 0.019 | 0.0222
in acetone | 0.00259 | 0.00293 | 0.00331 | 0.00373 | 0.00419 | 0.0047 | 0.00525 | 0.00587 | 0.00654
in acetonitrile | 0.000102 | 0.000145 | 0.000175 | 0.000228 | 0.000292 | 0.000368 | 0.000475 | 0.000583 | 0.000725
in ethanol | 0.000355 | 0.000447 | 0.000554 | 0.000682 | 0.000822 | 0.00102 | 0.00122 | 0.00147 | 0.00176
in isopropanol | 1.9e-05 | 3e-05 | 4.2e-05 | 6.3e-05 | 8.8e-05 | 0.000127 | 0.000175 | 0.000244 | 0.000334
in methanol | 0.00239 | 0.00269 | 0.00302 | 0.00339 | 0.00379 | 0.00423 | 0.00472 | 0.00525 | 0.00583
in n-propanol | 6.1e-05 | 8.2e-05 | 0.000113 | 0.000156 | 0.000209 | 0.000278 | 0.000367 | 0.000477 | 0.000621
in water | 0.000838 | 0.000915 | 0.000999 | 0.00109 | 0.00119 | 0.00129 | 0.0014 | 0.00153 | 0.00166
